Data on 37 compounds can be found in patent US7943619B2, “Isoxazolo-pyridazine derivatives” (priority 2007, dated 2011).

Structures can show the parent of a compound that is named as a salt.

For the experiment, the target named is human GABA A receptor α5β3γ2 (α5 subunit) (Homo sapiens, UniProt P18507+P31644). Kind of experiment: biochemical. The following applies: competition for [3H]flumazenil binding, HEK293 cells transiently expressing human receptors; means of two determinations; read-out: hKi. It counts as binding. The method, then:
The affinity of compounds at GABA A receptor subtypes was measured by competition for [3H]flumazenil (85 Ci/mmol; Roche) binding to HEK293 cells expressing rat (stably transfected) or human (transiently transfected) receptors of composition α1β3γ2, α2β3γ2, α3β3γ2 and α5β3γ2.
Cell pellets were suspended in Krebs-tris buffer (4.8 mM KCl, 1.2 mM CaCl2, 1.2 mM MgCl2, 120 mM NaCl, 15 mM Tris; pH 7.5; binding assay buffer), homogenized by polytron for ca. 20 sec on ice and centrifuged for 60 min at 4° C. (50000 g; Sorvall, rotor: SM24=20000 rpm). The cell pellets were resuspended in Krebs-tris buffer and homogenized by polytron for ca. 15 sec on ice. Protein was measured (Bradford method, Bio-Rad) and aliquots of 1 mL were prepared and stored at −80° C.
Assays were incubated to equilibrium for 1 hour at 4° C. and harvested onto GF/C uni-filters (Packard) by filtration using a Packard harvester and washing with ice-cold wash buffer (50 mM Tris; pH 7.5). After drying, filter-retained radioactivity was detected by liquid scintillation counting. Ki values were calculated using Excel-Fit (Microsoft) and are the means of two determinations.

Sequence of human GABA A receptor α5β3γ2 (α5 subunit) (P31644 32-462): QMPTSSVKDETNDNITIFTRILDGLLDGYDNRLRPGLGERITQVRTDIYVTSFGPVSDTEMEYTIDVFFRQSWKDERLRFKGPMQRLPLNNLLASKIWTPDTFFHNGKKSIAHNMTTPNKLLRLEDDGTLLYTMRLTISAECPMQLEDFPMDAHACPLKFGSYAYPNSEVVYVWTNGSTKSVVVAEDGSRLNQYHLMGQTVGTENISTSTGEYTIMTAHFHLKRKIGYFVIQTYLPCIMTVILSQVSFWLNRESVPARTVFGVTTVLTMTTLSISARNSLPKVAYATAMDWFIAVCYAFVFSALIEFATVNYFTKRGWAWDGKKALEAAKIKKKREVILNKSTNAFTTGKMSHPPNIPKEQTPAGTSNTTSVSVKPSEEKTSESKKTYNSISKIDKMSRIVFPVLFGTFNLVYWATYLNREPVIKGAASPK
Sequence of human GABA A receptor α5β3γ2 (α5 subunit) (P28472 26-473 partner): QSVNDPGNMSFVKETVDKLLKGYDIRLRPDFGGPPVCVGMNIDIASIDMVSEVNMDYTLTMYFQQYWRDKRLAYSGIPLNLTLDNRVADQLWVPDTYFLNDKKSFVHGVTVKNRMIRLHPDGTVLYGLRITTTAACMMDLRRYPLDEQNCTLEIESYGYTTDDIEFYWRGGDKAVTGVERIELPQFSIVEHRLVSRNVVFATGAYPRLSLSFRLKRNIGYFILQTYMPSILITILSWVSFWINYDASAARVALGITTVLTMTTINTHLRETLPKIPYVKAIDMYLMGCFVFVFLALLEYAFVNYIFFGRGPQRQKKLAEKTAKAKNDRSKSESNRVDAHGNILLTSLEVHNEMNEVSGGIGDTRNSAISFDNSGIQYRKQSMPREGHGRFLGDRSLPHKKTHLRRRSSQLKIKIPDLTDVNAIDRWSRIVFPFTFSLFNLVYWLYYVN
Sequence of human GABA A receptor α5β3γ2 (α5 subunit) (P18507 40-475): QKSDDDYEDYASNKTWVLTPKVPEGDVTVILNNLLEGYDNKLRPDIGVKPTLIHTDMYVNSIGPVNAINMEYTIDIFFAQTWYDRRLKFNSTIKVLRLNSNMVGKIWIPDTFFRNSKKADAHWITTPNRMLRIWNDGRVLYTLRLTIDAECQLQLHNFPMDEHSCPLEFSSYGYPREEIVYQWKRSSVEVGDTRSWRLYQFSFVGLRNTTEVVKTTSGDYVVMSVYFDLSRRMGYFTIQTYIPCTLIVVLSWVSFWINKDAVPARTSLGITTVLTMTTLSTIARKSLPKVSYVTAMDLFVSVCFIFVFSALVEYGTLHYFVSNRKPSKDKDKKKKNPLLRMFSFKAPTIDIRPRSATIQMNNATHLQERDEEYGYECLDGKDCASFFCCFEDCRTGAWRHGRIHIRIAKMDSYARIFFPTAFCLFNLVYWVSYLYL

On to `Cc1onc(-c2ccccc2)c1COc1ccc(Cl)nn1` [Example 1, 3-Chloro-6-(5-methyl-3-phenyl-isoxazol-4-ylmethoxy)-pyridazine], for which the Ki came out at 9.6 nM.

For `Cc1onc(-c2ccccc2)c1COc1ccc(Br)nn1` [Example 2, 3-Bromo-6-(5-methyl-3-phenyl-isoxazol-4-ylmethoxy)-pyridazine], the Ki is 7.6 nM.

Regarding `Cc1ccc(OCc2c(-c3ccccc3)noc2C)nn1` [Example 4, 3-Methyl-6-(5-methyl-3-phenyl-isoxazol-4-ylmethoxy)-pyridazine], the Ki was 6.2 nM.

Take `CCOC(=O)c1ccc(OCc2c(-c3ccccc3)noc2C)nn1` [Example 5, 6-(5-Methyl-3-phenyl-isoxazol-4-ylmethoxy)-pyridazine-3-carboxylic acid ethyl ester]: the Ki came to 5.5 nM.

In the case of `COCCNC(=O)c1ccc(OCc2c(-c3ccccc3)noc2C)nn1` [Example 6, 6-(5-Methyl-3-phenyl-isoxazol-4-ylmethoxy)-pyridazine-3-carboxylic acid (2-methoxy-ethyl)-amide], the Ki is 5.4 nM.

For the compound `Cc1onc(-c2ccccc2)c1COc1ccc(C(=O)NC(C)C)nn1` [Example 7, 6-(5-Methyl-3-phenyl-isoxazol-4-ylmethoxy)-pyridazine-3-carboxylic acid isopropylamide], the Ki was found to be 5.9 nM.

Regarding `Cc1onc(-c2ccccc2)c1COc1ccc(C(=O)NC2CC2)nn1` [Example 8, 6-(5-Methyl-3-phenyl-isoxazol-4-ylmethoxy)-pyridazine-3-carboxylic acid cyclopropylamide], the Ki worked out at 3.5 nM.

With `Cc1onc(-c2ccccc2)c1COc1ccc(C(=O)NC2CCOCC2)nn1` [Example 9, 6-(5-Methyl-3-phenyl-isoxazol-4-ylmethoxy)-pyridazine-3-carboxylic acid (tetrahydro-pyran-4-yl)-amide], the Ki amounted to 4.8 nM.

Turning to `Cc1onc(-c2ccccc2)c1COc1ccc(C(=O)NCCO)nn1` [Example 12, 6-(5-Methyl-3-phenyl-isoxazol-4-ylmethoxy)-pyridazine-3-carboxylic acid (2-hydroxy-ethyl)-amide], the Ki is 3.4 nM.

With `Cc1onc(-c2ccccc2)c1COc1ccc(C(=O)NC(C)(C)CO)nn1` [Example 13, 6-(5-Methyl-3-phenyl-isoxazol-4-ylmethoxy)-pyridazine-3-carboxylic acid (2-hydroxy-1,1-dimethyl-ethyl)-amide], the Ki turned out to be 7.7 nM.

In the case of `COc1ccc(OCc2c(-c3ccccc3)noc2C)nn1` [Example 14, 3-Methoxy-6-(5-methyl-3-phenyl-isoxazol-4-ylmethoxy)-pyridazine], the Ki was 12.3 nM.

As for `Cc1onc(-c2ccccc2)c1COc1ccc(N)nn1` [Example 15, 6-(5-Methyl-3-phenyl-isoxazol-4-ylmethoxy)-pyridazin-3-ylamine], the Ki turned out to be 4.1 nM.

Take `CC(=O)Nc1ccc(OCc2c(-c3ccccc3)noc2C)nn1` [Example 17, N-[6-(5-Methyl-3-phenyl-isoxazol-4-ylmethoxy)-pyridazin-3-yl]-acetamide]: the Ki was 3.9 nM.

In the case of `Cc1onc(-c2ccccc2)c1COc1ccc(NC(=O)C(C)C)nn1` [Example 20, N-[6-(5-Methyl-3-phenyl-isoxazol-4-ylmethoxy)-pyridazin-3-yl]-isobutyramide], the Ki was 7.9 nM.

Take `Cc1onc(-c2ccccc2)c1COc1ccc(NC(=O)C2CC2)nn1` [Example 21, Cyclopropanecarboxylic acid [6-(5-methyl-3-phenyl-isoxazol-4-ylmethoxy)-pyridazin-3-yl]-amide]: the Ki was 5.3 nM.

`Cc1onc(-c2ccccc2)c1COc1ccc(NC(=O)C2CCC2)nn1` [Example 22, Cyclobutanecarboxylic acid [6-(5-methyl-3-phenyl-isoxazol-4-ylmethoxy)-pyridazin-3-yl]-amide]: the Ki is 10.1 nM.

`Cc1onc(-c2ccccc2)c1COc1ccc(NC(=O)C2CCOCC2)nn1` [Example 25, Tetrahydro-pyran-4-carboxylic acid [6-(5-methyl-3-phenyl-isoxazol-4-ylmethoxy)-pyridazin-3-yl]-amide]: the Ki was 8.7 nM.

Turning to `Cc1onc(-c2ccccc2)c1COc1ccc(N2CCCC2=O)nn1` [Example 27, 1-[6-(5-Methyl-3-phenyl-isoxazol-4-ylmethoxy)-pyridazin-3-yl]-pyrrolidin-2-one], the Ki came to 4 nM.

In the case of `COC(=O)C(=O)Nc1ccc(OCc2c(-c3ccccc3)noc2C)nn1` [Example 28, N-[6-(5-Methyl-3-phenyl-isoxazol-4-ylmethoxy)-pyridazin-3-yl]-oxalamic acid methyl ester], the Ki was determined as 5.1 nM.

Regarding `Cc1onc(-c2ccccc2)c1COc1ccc(NC(=O)c2ccccc2)nn1` [Example 30, N-[6-(5-Methyl-3-phenyl-isoxazol-4-ylmethoxy)-pyridazin-3-yl]-benzamide], the Ki was found to be 13.7 nM.

For the compound `Cc1onc(-c2ccccc2)c1COc1ccc(NC(=O)c2ccco2)nn1` [Example 32, Furan-2-carboxylic acid [6-(5-methyl-3-phenyl-isoxazol-4-ylmethoxy)-pyridazin-3-yl]-amide], the Ki turned out to be 6.9 nM.

Consider `Cc1onc(-c2ccccc2)c1COc1ccc(NC(=O)c2ccno2)nn1` [Example 33, Isoxazole-5-carboxylic acid [6-(5-methyl-3-phenyl-isoxazol-4-ylmethoxy)-pyridazin-3-yl]-amide], for which the Ki was 5.4 nM.

In the case of `CCOC(=O)Nc1ccc(OCc2c(-c3ccccc3)noc2C)nn1` [Example 34, [6-(5-Methyl-3-phenyl-isoxazol-4-ylmethoxy)-pyridazin-3-yl]-carbamic acid ethyl ester], the Ki was 8.6 nM.

Turning to `Cc1onc(-c2ccccc2)c1COc1ccc(N2CCOCC2)nn1` [Example 36, 4-[6-(5-Methyl-3-phenyl-isoxazol-4-ylmethoxy)-pyridazin-3-yl]-morpholine], the Ki amounted to 9.4 nM.

Regarding `CNc1ccc(OCc2c(-c3ccccc3)noc2C)nn1` [Example 37, Methyl-[6-(5-methyl-3-phenyl-isoxazol-4-ylmethoxy)-pyridazin-3-yl]-amine HCl], the Ki stood at 6.3 nM.

Turning to `Cc1onc(-c2ccccc2)c1COc1ccc(N(C)C)nn1` [Example 38, Dimethyl-[6-(5-methyl-3-phenyl-isoxazol-4-ylmethoxy)-pyridazin-3-yl]-amine], the Ki is 8.4 nM.

With `Cc1cc(C)n(-c2ccc(OCc3c(-c4ccccc4)noc3C)nn2)n1` [Example 39, 3-(3,5-Dimethyl-pyrazol-1-yl)-6-(5-methyl-3-phenyl-isoxazol-4-ylmethoxy)-pyridazine], the Ki is 5.1 nM.

Take `CCOC(=O)c1cc(C)c(OCc2c(-c3ccccc3)noc2C)nn1` [Example 40, 5-Methyl-6-(5-methyl-3-phenyl-isoxazol-4-ylmethoxy)-pyridazine-3-carboxylic acid ethyl ester]: the Ki is 2.2 nM.

Turning to `Cc1cc(OCc2c(-c3ccccc3)noc2C)nnc1Cl` [Example 41, 3-Chloro-4-methyl-6-(5-methyl-3-phenyl-isoxazol-4-ylmethoxy)-pyridazine], the Ki was 2.3 nM.

As for `CCOC(=O)c1nnc(OCc2c(-c3ccccc3)noc2C)cc1C` [Example 42, 4-Methyl-6-(5-methyl-3-phenyl-isoxazol-4-ylmethoxy)-pyridazine-3-carboxylic acid ethyl ester], the Ki came out at 1.9 nM.

In the case of `Cc1cc(OCc2c(-c3ccccc3)noc2C)nnc1C(=O)NC1CCOCC1` [Example 44, 4-Methyl-6-(5-methyl-3-phenyl-isoxazol-4-ylmethoxy)-pyridazine-3-carboxylic acid (tetrahydro-pyran-4-yl)-amide], the Ki worked out at 3.4 nM.

For the compound `Cc1cc(OCc2c(-c3ccccc3)noc2C)nnc1C(=O)NC1CC1` [Example 45, 4-Methyl-6-(5-methyl-3-phenyl-isoxazol-4-ylmethoxy)-pyridazine-3-carboxylic acid cyclopropylamide], the Ki came out at 1.4 nM.

Take `Cc1cc(OCc2c(-c3ccccc3)noc2C)nnc1C(=O)NC(C)C` [Example 46, 4-Methyl-6-(5-methyl-3-phenyl-isoxazol-4-ylmethoxy)-pyridazine-3-carboxylic acid isopropylamide]: the Ki was determined as 3.6 nM.

`CCOC(=O)c1ccc(OCc2c(-c3cccc(F)c3)noc2C)nn1` [Example 49, 6-[3-(3-Fluoro-phenyl)-5-methyl-isoxazol-4-ylmethoxy]-pyridazine-3-carboxylic acid ethyl ester]: the Ki came to 9.6 nM.

As for `CNC(=O)c1ccc(OCc2c(-c3cccc(F)c3)noc2C)nn1` [Example 50, 6-[3-(3-Fluoro-phenyl)-5-methyl-isoxazol-4-ylmethoxy]-pyridazine-3-carboxylic acid methylamide], the Ki came out at 4.1 nM.

`CCNC(=O)c1ccc(OCc2c(-c3cccc(F)c3)noc2C)nn1` [Example 51, 6-[3-(3-Fluoro-phenyl)-5-methyl-isoxazol-4-ylmethoxy]-pyridazine-3-carboxylic acid ethylamide]: the Ki was found to be 6.1 nM.

As for `Cc1onc(-c2cccc(F)c2)c1COc1ccc(C(=O)NCCO)nn1` [Example 52, 6-[3-(3-Fluoro-phenyl)-5-methyl-isoxazol-4-ylmethoxy]-pyridazine-3-carboxylic acid (2-hydroxy-ethyl)-amide], the Ki amounted to 6.6 nM.
